Laboratory results: publication PMC2771219 (Journal of molecular biology, 2009)

Target: UDP-galactopyranose mutase (UGM) (Klebsiella pneumoniae, UniProt Q48485, R384G)
Experiment: fluorescence polarization
Format: binding

For UDP-fluorescein, the Kd was 90 nM.
